# Reference: PMC2920546, “Preclinical Pharmacology of BA-TPQ, a Novel Synthetic Iminoquinone Anticancer Agent” (Marine Drugs, 2010)
# Legend:
# [1] = Binding to mouse plasma proteins (micro-ultrafiltration); format: in vitro ADME; conditions: non-Swiss albino, pooled mouse plasma
# Method: The extent of binding to mouse plasma proteins by BA-TPQ was determined using a micro-ultrafiltration system as previously described. BA-TPQ was dissolved in methanol and added to pooled mouse plasma to yield final concentrations of 0.5 μM and 5.0 μM. Control solutions were prepared in methanol to account for non-specific binding of BA-TPQ to the filter membranes. Duplicate preparations of each concentration were incubated at 37 °C for 1 h, before being placed into the sample reservoirs of Amicon Centrifree® ultrafiltration tubes (30 kDa exclusion; Millipore Corporation, Bedford, MA, USA). The filter systems were then centrifuged at 3000 g (37 °C) for 30 min or until no solution remained in the reservoir. Aliquots were taken from each filtrate and analyzed using the validated HPLC method. The concentrations of the unfiltered plasma and control preparations were also determined using the same protocol and expressed as the “total drug” (T) present, while the amounts of BA-TPQ present in the filtrates were designated as “free drug” (F). The percentage of BA-TPQ bound to plasma proteins was calculated as follows:
# (1) Percent Bound=[(T-F)/T]×100
# [2] = Pharmacokinetics, excretion and strain comparison stated for CD-1 and nude mice together; format: in vivo
# Method: (§1) Female ICR/CD-1 (18–20 g) mice were purchased from Harlan Laboratories (Indianapolis, IN), and female nude mice (nu/nu; 4–6 weeks) were purchased from Frederick Cancer Research and Development Center (Frederick, MD). All animal use and care procedures were approved by the Institutional Animal Care and Use Committee (IACUC) of the University of Alabama at Birmingham. All animals were fed with commercial diet and water ad libitum and were on an alternating 12 h light/dark cycle.
# (§2) CD-1 and nude mice were randomly divided into groups of three, and were dosed either intravenously (5 mg/kg) or intraperitoneally (10 mg/kg) with BA-TPQ in PEG 400:ethanol:0.9% saline (57.1%:14.3%:28.6%). Before dosing, and at 5, 15, 30, 60 min, and 2, 4, 8, and 24 h after dosing, groups of animals (three/time point) were anesthetized, and blood was collected from the retro-orbital sinus into heparinized tubes. Plasma was obtained by centrifuging the blood samples at 14,000 rpm for 15 min. BA-TPQ was then extracted from plasma and stored at −80 °C. The brain, heart, kidneys, liver, lungs, and spleen were also collected at the same time points during necropsy, blotted on Whatman No. 1 filter paper, trimmed of extraneous fat and connective tissue, weighed, and homogenized in phosphate-buffered saline. The resulting homogenates were stored at −80 °C until further processing and analysis. Urine and feces were collected for 24 hr from mice housed in metabolic cages. After collection, the cages were also washed twice with 200 μL PBS, and the washes were collected and analyzed separately. The total urine was determined as the amount from the urine plus washes 1 and 2. Feces were homogenized in PBS, then extracted using the same procedure used for tissues.
# (§3) Six hundred microliters of acetonitrile was added to 200 μL of plasma, urine, cage washes (first and second), or tissue/feces homogenate in an Eppendorf tube to precipitate proteins. After centrifugation at 14,000 rpm for 10 min, the supernatant was transferred to a glass tube and evaporated to dryness using a TurboVap® LV Concentration Workstation (Caliper Lifesciences, Hopkinton, MA). The residue was reconstituted with 500 μL ethyl acetate, sonicated for 10 min, and vortexed for 10 sec. Samples were then centrifuged again and the resulting supernatant was transferred to a new glass tube and evaporated to dryness. Finally, samples were reconstituted in 100 μL mobile phase, and 50 μL was injected into the HPLC system for analysis.
# (§4) The averages of the BA-TPQ concentration in plasma and tissues following intravenous and intraperitoneal administration to three animals per time point were used for pharmacokinetic analyses using a two-compartmental model and a non-compartment model, respectively. The following pharmacokinetic parameters were estimated using Phoenix WinNonlin 6.0 (Mountain View, CA): area under the concentration-time curve (AUC, h·μg/mL), half-life (T½, h), maximum concentration (Cmax, μg/mL), time of the maximum concentration (Tmax, h), and clearance (CL, mL/h/kg), as applicable. Bioavailability (X) was calculated as X= [AUCip × doseiv]/[AUCiv × doseip].
# [3] = Pharmacokinetics and tissue distribution in nude mice; format: in vivo
# Method: as §1, §2, §3, §4
# [4] = IV 5 mg/kg, both strains, 24 hr collection
# [5] = female, nude (nu/nu), mouse, brain, IP 10 mg/kg
# [6] = female, nude (nu/nu), mouse, brain, IV 5 mg/kg
# [7] = female, nude (nu/nu), mouse, heart, IP 10 mg/kg
# [8] = female, nude (nu/nu), mouse, heart, IV 5 mg/kg
# [9] = female, nude (nu/nu), mouse, kidneys, IP 10 mg/kg
# [10] = female, nude (nu/nu), mouse, kidneys, IV 5 mg/kg
# [11] = female, nude (nu/nu), mouse, liver, IP 10 mg/kg
# [12] = female, nude (nu/nu), mouse, liver, IV 5 mg/kg
# [13] = female, nude (nu/nu), mouse, lungs, IP 10 mg/kg
# [14] = female, nude (nu/nu), mouse, lungs, IV 5 mg/kg
# [15] = female, nude (nu/nu), mouse, plasma, IP 10 mg/kg
# [16] = female, nude (nu/nu), mouse, plasma, IV 5 mg/kg
# [17] = female, nude (nu/nu), mouse, spleen, IP 10 mg/kg
# [18] = female, nude (nu/nu), mouse, spleen, IV 5 mg/kg
smiles,measurement,setting,value
"O=C1C(NCc2ccccc2)=CC2=NCCc3c[nH]c1c32 [BA-TPQ, 7-(benzylamino)-1,3,4,8-tetrahydropyrrolo[4,3,2-de]quinolin-8(1H)-one]",fraction unbound at 1 h,"[1]; mouse, read-out: Bound to plasma proteins (overall) (converted)",~0.3
same,"fraction unbound at 1 h, 0.5 μM","[1]; mouse plasma, 0.5 μM, read-out: Bound to plasma proteins (converted)",0.37
same,"fraction unbound at 1 h, 5 μM","[1]; mouse plasma, 5.0 μM, read-out: Bound to plasma proteins (converted)",0.26
same,Amount excreted in the feces,[2]; IP 10 mg/kg,less than 1%
same,Amount excreted in the urine,"[2]; IP 10 mg/kg, first 24 h after dosing",less than 0.02 % of the administered dose
same,"AUC in the brain, nude mice versus CD-1 mice",[2]; IP injection,~ 5 fold
same,"Accumulation in the liver, nude mice versus CD-1 mice",[2]; IP injection,~ 18 fold
same,Detectability in the lungs at 24 h,"[2]; IV 5 mg/kg, both CD-1 and nude mice",still detectable
same,Amount excreted in feces,[2]; [4],less than 1 % of the administered dose
same,Amount excreted in the urine,[2]; [4],less than 0.1 % of the administered dose
same,Detectability in plasma,"[2]; IV 5 mg/kg, either strain of mice",no longer detectable in plasma after 2 h
same,"Exposure of the heart (AUC), nude mice versus CD-1 mice",[2]; IV injection,approximately 6 fold
same,bioavailability,"[2]; female, CD-1 and nude (nu/nu), mouse, plasma, ip, 10 mg/kg, mice, IP injection, read-out: Intraperitoneal bioavailability (authors' overall estimate)",~70%
same,Blood-brain barrier passage (AUC in brain comparable to plasma),[2]; mice,can cross the blood-brain barrier
same,Intraperitoneal bioavailability (authors' overall estimate),"[2]; mice, IP injection",> 70%
same,Time of greatest plasma concentration,[3]; IP 10 mg/kg,1 h
same,Cl,"[3]; brain, IP 10 mg/kg",650 mL/min/kg
same,AUC,[3]; [5],770 ng·h/mL
same,Cmax,[3]; [5],90 ng/mL
same,Tmax,[3]; [5],60 min
same,half-life,[3]; [5],244 min
same,AUC,[3]; [6],340 ng·h/mL
same,Cmax,[3]; [6],620 ng/mL
same,clearance,[3]; [6],1730 mL/min/kg
same,half-life,[3]; [6],22.8 min
same,AUC,[3]; [7],7630 ng·h/mL
same,Cmax,[3]; [7],6380 ng/mL
same,Tmax,[3]; [7],15 min
same,half-life,[3]; [7],30 min
same,AUC,[3]; [8],6370 ng·h/mL
same,Cmax,[3]; [8],48800 ng/mL
same,clearance,[3]; [8],83.3 mL/min/kg
same,half-life,[3]; [8],5.4 min
same,AUC,[3]; [9],12600 ng·h/mL
same,Cmax,[3]; [9],10800 ng/mL
same,Tmax,[3]; [9],30 min
same,half-life,[3]; [9],29.4 min
same,AUC,[3]; [10],5480 ng·h/mL
same,Cmax,[3]; [10],20800 ng/mL
same,clearance,[3]; [10],100 mL/min/kg
same,half-life,[3]; [10],10.8 min
same,AUC,[3]; [11],2760 ng·h/mL
same,Cmax,[3]; [11],4560 ng/mL
same,Tmax,[3]; [11],4.8 min
same,half-life,[3]; [11],31.8 min
same,AUC,[3]; [12],710 ng·h/mL
same,Cmax,[3]; [12],2710 ng/mL
same,clearance,[3]; [12],817 mL/min/kg
same,half-life,[3]; [12],10.8 min
same,AUC,[3]; [13],13200 ng·h/mL
same,Cmax,[3]; [13],14800 ng/mL
same,Tmax,[3]; [13],4.8 min
same,half-life,[3]; [13],35.4 min
same,AUC,[3]; [14],9180 ng·h/mL
same,Cmax,[3]; [14],18400 ng/mL
same,clearance,[3]; [14],66.7 mL/min/kg
same,half-life,[3]; [14],21 min
same,AUC,[3]; [15],150 ng·h/mL
same,Cmax,[3]; [15],220 ng/mL
same,Tmax,[3]; [15],15 min
same,half-life,[3]; [15],70.2 min
same,bioavailability,"[3]; female, nude (nu/nu), mouse, plasma, IP 10 mg/kg vs IV 5 mg/kg, read-out: Intraperitoneal bioavailability",100%
same,AUC,[3]; [16],40 ng·h/mL
same,Cmax,[3]; [16],150 ng/mL
same,half-life,[3]; [16],10.2 min
same,AUC,[3]; [17],18300 ng·h/mL
same,Cmax,[3]; [17],31200 ng/mL
same,Tmax,[3]; [17],15 min
same,half-life,[3]; [17],99 min
same,AUC,[3]; [18],4980 ng·h/mL
same,Cmax,[3]; [18],11000 ng/mL
same,clearance,[3]; [18],117 mL/min/kg
same,half-life,[3]; [18],18.6 min
same,Cl,"[3]; heart, IP 10 mg/kg",83 mL/min/kg
same,Cl,"[3]; kidneys, IP 10 mg/kg",50 mL/min/kg
same,Cl,"[3]; liver, IP 10 mg/kg",217 mL/min/kg
same,Cl,"[3]; lungs, IP 10 mg/kg",50 mL/min/kg
same,Cl,"[3]; plasma, IP 10 mg/kg",3920 mL/min/kg
same,Cl,"[3]; spleen, IP 10 mg/kg",33 mL/min/kg
